The subject of one series is Enterococcus faecalis. Briefly: Antibacterial activity against Enterococcus faecalis ATCC 29212 assessed as bacterial growth inhibition incubated for 18 hrs by broth microdilution method. The series is classed as functional.
The subject of the next series is Escherichia coli. Briefly: Antibacterial activity against Escherichia coli ATCC 25922 assessed as bacterial growth inhibition incubated for 18 hrs by broth microdilution method. The series is classed as functional.
In another series the test system is Bacillus subtilis. Put plainly: Antibacterial activity against Bacillus subtilis ATCC 23857 assessed as bacterial growth inhibition incubated for 18 hrs by broth microdilution method. The series is classed as functional.
A further series concerns Staphylococcus aureus. Briefly: Antibacterial activity against Staphylococcus aureus ATCC 25923 assessed as bacterial growth inhibition incubated for 18 hrs by broth microdilution method. It is filed as functional.
A further series has as its system Klebsiella pneumoniae. Briefly: Antibacterial activity against Klebsiella pneumoniae ATCC 700603 assessed as bacterial growth inhibition incubated for 18 hrs by broth microdilution method. It is filed as functional.
The subject of the next series is Erythrocyte. Put plainly: Hemolytic activity in mouse red blood cell assessed as hemolysis incubated for 1 hr. The note with it: dose 4-256 µg/ml. It is filed as toxicity, cell-based.
For a further series, the system named is Pseudomonas aeruginosa. Put plainly: Antibacterial activity against Pseudomonas aeruginosa ATCC 27853 assessed as bacterial growth inhibition incubated for 18 hrs by broth microdilution method. The series is classed as functional.
Series [1] can be described thus: Hemolytic activity in mouse red blood cells assessed as hemolysis at 256 microg/ml incubated for 1 hr relative to control. The series is classed as toxicity, cell-based, Erythrocyte. Conditions: red blood cells (erythrocytes), at 256 µg/mL, read-out: Activity.

≈ marks a conversion by molar mass, not a printed value. Where a SMILES comes first, the peptide text is derived from it. [ ]: non-standard residue; d: D form. The star is where a group is joined. Dab = NCC[C@H](N)C(=O)O; Hexanoyl = CCCCCC(=O)* Some results are limits rather than exact numbers.

Turning to `CCCCCCCC(=O)N[C@@H](CCN)C(=O)N[C@H](C(=O)N[C@@H](CCN)C(=O)N[C@H](Cc1ccccc1)C(=O)N[C@@H](CC(C)C)C(=O)N[C@@H](CCN)C(=O)N[C@@H](C(=O)N[C@@H](CC(C)C)C(=O)N[C@H](C(N)=O)[C@@H](C)O)C(C)C)[C@@H](C)CC`, the minimal inhibitory concentration (MIC) with Enterococcus faecalis was 16 µg/mL (≈ 14.2 µM); with Escherichia coli it was 4 µg/mL (≈ 3.54 µM); in the series with Bacillus subtilis, 4 µg/mL (≈ 3.54 µM); with Staphylococcus aureus, 8 µg/mL (≈ 7.08 µM); with Klebsiella pneumoniae, 8 µg/mL (≈ 7.08 µM); with Pseudomonas aeruginosa it was 8 µg/mL (≈ 7.08 µM). For the same compound, the HC10 with Erythrocyte stood at 128 µg/mL.
In the case of `CCCCCC(=O)N[C@@H](CCN)C(=O)N[C@H](C(=O)N[C@H]1CCNC(=O)[C@H]([C@@H](C)O)NC(=O)[C@H](CC(C)C)NC(=O)[C@@H](C(C)C)NC(=O)[C@H](CCN)NC(=O)[C@H](CC(C)C)NC(=O)[C@@H](Cc2ccccc2)NC1=O)[C@@H](C)CC`, the MIC in the series with Enterococcus faecalis was determined as 64 µg/mL (≈ 59 µM); with Escherichia coli it was 16 µg/mL (≈ 14.7 µM); in the series on Bacillus subtilis, 4 µg/mL (≈ 3.69 µM); with Staphylococcus aureus, 32 µg/mL (≈ 29.5 µM); in the series with Klebsiella pneumoniae it was 64 µg/mL (≈ 59 µM); with Pseudomonas aeruginosa, 64 µg/mL (≈ 59 µM). Further, the HC10 in the series on Erythrocyte amounted to 512 µg/mL. In series [1], the hemolysis at 1 h, 256 µg/mL is < 5%.
As to `CCCCCC(=O)N[C@@H](CCN)C(=O)N[C@H](C(=O)N[C@@H](CCN)C(=O)N[C@H](Cc1ccccc1)C(=O)N[C@@H](CC(C)C)C(=O)N[C@@H](CCN)C(=O)N[C@@H](C(=O)N[C@@H](CC(C)C)C(=O)N[C@@H](CO)C(N)=O)C(C)C)[C@@H](C)CC` (Hexanoyl-[Dab]I[Dab][dF]L[Dab][dV]LS-NH2), the MIC came out at 128 µg/mL (≈ 118 µM) in the series on Enterococcus faecalis; 32 µg/mL (≈ 29.4 µM) in the series with Escherichia coli; 8 µg/mL (≈ 7.35 µM) in the series with Bacillus subtilis; 64 µg/mL (≈ 58.8 µM) in the series on Staphylococcus aureus; 64 µg/mL (≈ 58.8 µM) with Klebsiella pneumoniae; 4 µg/mL (≈ 3.68 µM) in the series with Pseudomonas aeruginosa. Also, in the series on Erythrocyte, the HC10 was 512 µg/mL. Moreover, the hemolysis at 1 h, 256 µg/mL in series [1] was < 5%.
For `CCCCCCCCCCCCC(=O)N[C@@H](CCN)C(=O)N[C@H](C(=O)N[C@@H](CCN)C(=O)N[C@H](Cc1ccccc1)C(=O)N[C@@H](CC(C)C)C(=O)N[C@@H](CCN)C(=O)N[C@@H](C(=O)N[C@@H](CC(C)C)C(=O)N[C@H](C(N)=O)[C@@H](C)O)C(C)C)[C@@H](C)CC`, the minimal inhibitory concentration (MIC) with Enterococcus faecalis is 8 µg/mL (≈ 6.66 µM); with Escherichia coli, 8 µg/mL (≈ 6.66 µM); with Bacillus subtilis, 16 µg/mL (≈ 13.3 µM); in the series on Staphylococcus aureus, 32 µg/mL (≈ 26.7 µM); in the series on Klebsiella pneumoniae, 16 µg/mL (≈ 13.3 µM); in the series on Pseudomonas aeruginosa it was 16 µg/mL (≈ 13.3 µM). Further, the HC10 in the series with Erythrocyte came to 8 µg/mL.
As to `CCCCCCCCCCCCCC(=O)N[C@@H](CCN)C(=O)N[C@H](C(=O)N[C@@H](CCN)C(=O)N[C@H](Cc1ccccc1)C(=O)N[C@@H](CC(C)C)C(=O)N[C@@H](CCN)C(=O)N[C@@H](C(=O)N[C@@H](CC(C)C)C(=O)N[C@H](C(N)=O)[C@@H](C)O)C(C)C)[C@@H](C)CC`, the MIC in the series with Enterococcus faecalis was 16 µg/mL (≈ 13.2 µM); in the series on Escherichia coli, 128 µg/mL (≈ 105 µM); in the series on Bacillus subtilis it was 16 µg/mL (≈ 13.2 µM); in the series on Staphylococcus aureus it was 32 µg/mL (≈ 26.3 µM); with Klebsiella pneumoniae, > 128 µg/mL; with Pseudomonas aeruginosa it was 32 µg/mL (≈ 26.3 µM). For the same compound, the HC10 in the series with Erythrocyte stood at 32 µg/mL.
Consider `CC[C@H](C)[C@H](NC(=O)[C@@H](N)CCN)C(=O)N[C@@H](CCN)C(=O)N[C@H](Cc1ccccc1)C(=O)N[C@@H](CC(C)C)C(=O)N[C@@H](CCN)C(=O)N[C@@H](C(=O)N[C@@H](CC(C)C)C(=O)N[C@H](C(N)=O)[C@@H](C)O)C(C)C`, for which the MIC in the series with Enterococcus faecalis was > 128 µg/mL; with Escherichia coli, 128 µg/mL (≈ 127 µM); in the series on Bacillus subtilis, 32 µg/mL (≈ 31.9 µM); with Staphylococcus aureus it was > 128 µg/mL; in the series on Klebsiella pneumoniae, > 128 µg/mL; in the series on Pseudomonas aeruginosa, 32 µg/mL (≈ 31.9 µM). For the same compound, the HC10 with Erythrocyte was 512 µg/mL.
As to `CC[C@H](C)[C@H](NC(=O)[C@H](CCN)NC(=O)CC(O)C(C)C)C(=O)N[C@@H](CCN)C(=O)N[C@H](Cc1ccccc1)C(=O)N[C@@H](CC(C)C)C(=O)N[C@@H](CCN)C(=O)N[C@@H](C(=O)N[C@@H](CC(C)C)C(=O)N[C@H](C(N)=O)[C@@H](C)O)C(C)C` (stereo not given in full), the minimal inhibitory concentration (MIC) in the series on Enterococcus faecalis was > 128 µg/mL; with Escherichia coli it was 32 µg/mL (≈ 28.6 µM); in the series on Bacillus subtilis it was 8 µg/mL (≈ 7.15 µM); in the series on Staphylococcus aureus, > 128 µg/mL; with Klebsiella pneumoniae it was 64 µg/mL (≈ 57.2 µM); in the series on Pseudomonas aeruginosa it was 4 µg/mL (≈ 3.58 µM). Besides, the HC10 with Erythrocyte stood at 512 µg/mL. For the same compound, the hemolysis at 1 h, 256 µg/mL in series [1] was < 2%.
For `CCCCCC(=O)N[C@@H](CCN)C(=O)N[C@H](C(=O)N[C@@H](CCN)C(=O)N[C@H](Cc1ccccc1)C(=O)N[C@@H](CC(C)C)C(=O)N[C@@H](CCN)C(=O)N[C@@H](C(=O)N[C@@H](CC(C)C)C(=O)N[C@@H](Cc1c[nH]c2ccccc12)C(N)=O)C(C)C)[C@@H](C)CC`, the MIC in the series with Enterococcus faecalis stood at 32 µg/mL (≈ 26.9 µM); in the series with Escherichia coli, 16 µg/mL (≈ 13.5 µM); in the series with Bacillus subtilis, 4 µg/mL (≈ 3.37 µM); in the series on Staphylococcus aureus, 8 µg/mL (≈ 6.74 µM); with Klebsiella pneumoniae it was 32 µg/mL (≈ 26.9 µM); in the series with Pseudomonas aeruginosa, 4 µg/mL (≈ 3.37 µM). Also, in the series with Erythrocyte, the HC10 was 512 µg/mL. Further, in series [1], the hemolysis at 1 h, 256 µg/mL was < 5%.

(Values after ChEMBL document CHEMBL5331122, “Structure-Activity Relationship Study of Antimicrobial Peptide PE2 Delivered Novel Linear Derivatives with Potential of Eradicating Biofilms and Low Incidence of Drug Resistance” (J Med Chem, 2023).)
